# Source: ChEMBL document CHEMBL1201862, “PubChem BioAssay data set” (2004)
# The source made the active and inactive calls.
# Legend:
# [1] = molecular target: Paired box protein Pax-8 (Homo sapiens, UniProt Q06710); experiment: inhibitors of PAX8-driven TPO luciferase reporter, dose response, RMG-I cells, cherry-pick (AID 687027); format: functional, cell-based;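 note: luciferase reporter driven by Pax8 target thyroperoxidase promoter measured by SteadyGlo luminescence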
# [2] = NIH:OVCAR-3 ovarian cancer cell cytotoxicity, dose response, PAX8 inhibitor project, plate reader, dry powder samples (AID 743044); format: functional, cell-based
# [3] = cytotoxicity in OVCAR8 ovarian cancer cells, dose response, PAX8 project, cell-based, plate reader, dry powder samples (AID 743197); format: functional; settings: OVCAR-8
# [4] = molecular target: Long-chain-fatty-acid--AMP ligase FadD28 (Mycobacterium tuberculosis, UniProt P9WQ59); experiment: Fluorescence polarization aasay to screen for inhibitors that compete for the binding of FadD28 to a bisubstrate Measured in Biochemical System Using Plate Reader - 2147-01_Inhibitor_Dose_CherryPick_Activity.; format: functional, Mycobacterium tuberculosis H37Rv
# Sequence of Long-chain-fatty-acid--AMP ligase FadD28 (P9WQ59 whole entry): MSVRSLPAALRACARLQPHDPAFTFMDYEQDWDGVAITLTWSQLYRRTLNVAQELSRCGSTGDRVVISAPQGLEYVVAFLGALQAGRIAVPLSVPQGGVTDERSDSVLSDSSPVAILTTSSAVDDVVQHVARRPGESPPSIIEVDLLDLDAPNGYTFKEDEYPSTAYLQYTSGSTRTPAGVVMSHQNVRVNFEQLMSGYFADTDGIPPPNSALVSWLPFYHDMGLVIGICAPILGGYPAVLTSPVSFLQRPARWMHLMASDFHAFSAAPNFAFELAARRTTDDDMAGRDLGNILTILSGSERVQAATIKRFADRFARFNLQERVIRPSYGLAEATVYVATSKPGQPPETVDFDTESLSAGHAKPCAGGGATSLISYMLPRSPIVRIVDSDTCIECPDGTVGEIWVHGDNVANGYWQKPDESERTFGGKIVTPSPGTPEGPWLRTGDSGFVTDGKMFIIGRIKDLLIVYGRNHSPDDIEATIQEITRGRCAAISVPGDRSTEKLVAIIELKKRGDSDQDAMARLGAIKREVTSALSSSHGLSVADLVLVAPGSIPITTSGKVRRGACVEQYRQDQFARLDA
# [5] = molecular target: T1, Protein skinhead-1 (Caenorhabditis elegans, UniProt P34707); format: functional
# T1 sequence (P34707 whole entry): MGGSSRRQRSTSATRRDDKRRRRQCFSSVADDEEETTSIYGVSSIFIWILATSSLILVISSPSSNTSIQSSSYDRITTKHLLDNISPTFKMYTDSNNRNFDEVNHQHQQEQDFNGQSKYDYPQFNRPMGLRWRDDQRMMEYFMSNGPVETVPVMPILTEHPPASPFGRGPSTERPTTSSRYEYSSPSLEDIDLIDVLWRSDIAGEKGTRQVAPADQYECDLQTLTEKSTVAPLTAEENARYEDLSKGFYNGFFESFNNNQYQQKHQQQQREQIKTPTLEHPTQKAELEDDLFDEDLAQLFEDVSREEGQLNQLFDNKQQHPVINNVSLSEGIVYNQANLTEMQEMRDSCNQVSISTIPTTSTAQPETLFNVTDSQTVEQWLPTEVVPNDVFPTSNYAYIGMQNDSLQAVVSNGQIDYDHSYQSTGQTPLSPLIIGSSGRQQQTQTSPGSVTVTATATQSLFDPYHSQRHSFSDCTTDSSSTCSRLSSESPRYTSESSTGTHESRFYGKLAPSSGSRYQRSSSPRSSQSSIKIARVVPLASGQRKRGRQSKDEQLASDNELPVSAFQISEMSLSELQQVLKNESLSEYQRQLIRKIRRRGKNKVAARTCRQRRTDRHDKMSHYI
# [6] = cells; format: functional, cell-based
# [7] = molecular target: T2, Nuclear receptor subfamily 0 group B member 1 (Homo sapiens, UniProt P51843); format: functional, cell-based;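 note: HEK293T cells transfected with SF-1 and DAX-1 plus StAR promoter luciferase reporter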
# T2 sequence (P51843 whole entry): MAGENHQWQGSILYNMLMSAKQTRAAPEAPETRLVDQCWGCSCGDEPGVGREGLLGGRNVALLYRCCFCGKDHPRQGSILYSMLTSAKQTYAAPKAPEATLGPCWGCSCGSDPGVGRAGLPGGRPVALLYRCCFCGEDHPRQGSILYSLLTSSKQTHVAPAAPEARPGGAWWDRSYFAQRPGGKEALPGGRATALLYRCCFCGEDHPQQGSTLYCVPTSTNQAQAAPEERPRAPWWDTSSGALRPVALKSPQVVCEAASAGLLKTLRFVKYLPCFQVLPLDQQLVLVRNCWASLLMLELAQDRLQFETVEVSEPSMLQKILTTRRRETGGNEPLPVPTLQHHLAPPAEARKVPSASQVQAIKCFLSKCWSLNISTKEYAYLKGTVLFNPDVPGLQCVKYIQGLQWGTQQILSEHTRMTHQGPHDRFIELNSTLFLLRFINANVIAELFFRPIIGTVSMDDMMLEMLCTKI
# [8] = molecular target: T3, Low molecular weight phosphotyrosine protein phosphatase (Homo sapiens, UniProt P24666); format: functional; settings: read-out: IC50_Mean
# T3 sequence (P24666 whole entry): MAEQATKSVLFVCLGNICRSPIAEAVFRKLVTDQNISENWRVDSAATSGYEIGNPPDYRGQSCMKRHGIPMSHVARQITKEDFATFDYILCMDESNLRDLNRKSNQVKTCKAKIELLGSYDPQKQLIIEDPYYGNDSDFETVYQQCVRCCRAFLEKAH
# [9] = molecular target: T3, Low molecular weight phosphotyrosine protein phosphatase; format: functional; settings: read-out: IC50_Mean; remark: listed apart in the source
# [10] = A549 cell cytotoxicity, dose response, cytotoxicity control, plate reader, cherry-pick, antagonist series (AID 743412); format: functional, cell-based
# [11] = HepG2 cell cytotoxicity, dose response, cytotoxicity control, plate reader, cherry-pick, antagonist series (AID 743416); format: functional, cell-based
# [12] = LGR2 antagonists, dose response, cell-based, HEK293, CRE-luciferase reporter, cherry pick, set 2 (AID 743343); format: functional;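 note: transfected cells were stimulated with diluted bursicon conditioned medium after compound addition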
# [13] = MC4R antagonists, dose response, counter-screen for LGR2 antagonist project, cell-based, plate reader, cherry pick (AID 743444); format: functional;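 note: transfected HEK 293 cells stimulated with alpha-MSH peptide; potency of inhibitors of the alpha-MSH evoked signal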
# [14] = HEK293 cell cytotoxicity, dose response, cytotoxicity control, plate reader, cherry-picked samples (AID 743446); format: functional, cell-based
# [15] = molecular target: Disintegrin and metalloproteinase domain-containing protein 17 (Homo sapiens, UniProt P78536); experiment: exosite inhibitors of ADAM17, dose response, biochemical (AID 743260)
# Sequence of Disintegrin and metalloproteinase domain-containing protein 17 (P78536 whole entry, the tested form may be a part): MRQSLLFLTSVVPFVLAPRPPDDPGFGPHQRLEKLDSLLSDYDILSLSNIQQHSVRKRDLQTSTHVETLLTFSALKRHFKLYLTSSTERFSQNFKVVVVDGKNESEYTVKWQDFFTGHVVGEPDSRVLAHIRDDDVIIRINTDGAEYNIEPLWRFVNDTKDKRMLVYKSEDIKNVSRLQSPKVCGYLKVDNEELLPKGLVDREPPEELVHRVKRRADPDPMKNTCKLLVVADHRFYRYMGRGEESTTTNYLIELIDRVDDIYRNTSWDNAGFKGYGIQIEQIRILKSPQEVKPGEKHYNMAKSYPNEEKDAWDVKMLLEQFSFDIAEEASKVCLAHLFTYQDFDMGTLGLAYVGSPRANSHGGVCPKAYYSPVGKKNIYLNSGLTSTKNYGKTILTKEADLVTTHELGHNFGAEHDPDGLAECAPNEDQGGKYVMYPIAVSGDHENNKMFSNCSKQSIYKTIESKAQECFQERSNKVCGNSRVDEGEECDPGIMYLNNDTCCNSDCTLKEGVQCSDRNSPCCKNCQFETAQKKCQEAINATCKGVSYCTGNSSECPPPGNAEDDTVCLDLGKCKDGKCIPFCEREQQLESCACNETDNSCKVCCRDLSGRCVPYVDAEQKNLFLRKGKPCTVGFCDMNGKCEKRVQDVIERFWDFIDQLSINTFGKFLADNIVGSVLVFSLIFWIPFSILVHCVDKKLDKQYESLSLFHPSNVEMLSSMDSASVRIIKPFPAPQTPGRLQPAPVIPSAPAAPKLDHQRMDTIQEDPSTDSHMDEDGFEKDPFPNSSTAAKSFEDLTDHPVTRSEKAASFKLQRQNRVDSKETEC
# [16] = molecular target: T4, Corticotropin-releasing factor receptor 2/Corticotropin-releasing factor-binding protein (Homo sapiens, UniProt P24387+Q13324); experiment: Dose Response confirmation of uHTS hits for small molecule antagonists of the CRF-binding protein and CRF-R2 receptor complex.; format: functional; settings: read-out: IC50_Mean
# T4 sequence (Q13324 whole entry): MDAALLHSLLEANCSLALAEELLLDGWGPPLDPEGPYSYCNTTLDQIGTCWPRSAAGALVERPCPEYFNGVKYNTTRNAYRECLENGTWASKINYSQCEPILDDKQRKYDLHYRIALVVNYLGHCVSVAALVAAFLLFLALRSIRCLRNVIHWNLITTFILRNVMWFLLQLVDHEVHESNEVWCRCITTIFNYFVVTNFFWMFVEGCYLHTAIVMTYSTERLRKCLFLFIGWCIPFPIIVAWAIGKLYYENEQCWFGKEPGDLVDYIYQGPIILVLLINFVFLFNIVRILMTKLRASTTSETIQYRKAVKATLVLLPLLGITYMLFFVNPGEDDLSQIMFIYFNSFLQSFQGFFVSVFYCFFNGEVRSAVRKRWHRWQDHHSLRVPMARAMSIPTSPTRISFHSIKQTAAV
# T4 sequence (P24387 whole entry): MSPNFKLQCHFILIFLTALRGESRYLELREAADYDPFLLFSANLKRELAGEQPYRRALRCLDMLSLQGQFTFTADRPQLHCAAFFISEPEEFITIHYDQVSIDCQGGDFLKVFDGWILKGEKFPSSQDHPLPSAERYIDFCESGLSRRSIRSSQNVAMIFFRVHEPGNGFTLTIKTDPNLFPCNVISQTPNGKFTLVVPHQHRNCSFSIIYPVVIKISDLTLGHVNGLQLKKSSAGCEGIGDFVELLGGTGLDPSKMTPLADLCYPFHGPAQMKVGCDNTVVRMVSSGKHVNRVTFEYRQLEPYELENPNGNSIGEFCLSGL
# [17] = molecular target: T4, Corticotropin-releasing factor receptor 2/Corticotropin-releasing factor-binding protein; experiment: activators of CRF receptor 2 with binding protein – uHTS hits, confirmation (AID 602473); format: functional; settings: read-out: EC50_Mean
# [18] = CRF-BP/CRF-R2 complex antagonists, dose response, cell-based, uHTS hits, 384-well (AID 651639); format: functional, Homo sapiens; settings: read-out: IC50_Mean
# [19] = molecular target: DNA dC->dU-editing enzyme APOBEC-3A (Homo sapiens, UniProt P31941); experiment: Dose Response confirmation of small molecule APOBEC3A DNA Deaminase Inhibitors via a fluorescence-based single-stranded DNA deaminase assay. [Related pubchem assays (depositor defined):AID493011, AID493024]; format: functional
# Sequence of DNA dC->dU-editing enzyme APOBEC-3A (P31941 whole entry): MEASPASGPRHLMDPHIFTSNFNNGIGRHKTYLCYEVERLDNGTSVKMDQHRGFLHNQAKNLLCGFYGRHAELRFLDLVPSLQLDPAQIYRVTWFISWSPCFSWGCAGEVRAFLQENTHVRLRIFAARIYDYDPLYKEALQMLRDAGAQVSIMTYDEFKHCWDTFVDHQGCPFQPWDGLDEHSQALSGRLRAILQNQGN
# [20] = molecular target: DNA dC->dU-editing enzyme APOBEC-3G (Homo sapiens, UniProt Q9HC16); format: functional;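 note: Dose-response counterscreen measuring inhibition of APOBEC3G DNA deaminase activity, run while confirming APOBEC3A inhibitors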
# Sequence of DNA dC->dU-editing enzyme APOBEC-3G (Q9HC16 whole entry): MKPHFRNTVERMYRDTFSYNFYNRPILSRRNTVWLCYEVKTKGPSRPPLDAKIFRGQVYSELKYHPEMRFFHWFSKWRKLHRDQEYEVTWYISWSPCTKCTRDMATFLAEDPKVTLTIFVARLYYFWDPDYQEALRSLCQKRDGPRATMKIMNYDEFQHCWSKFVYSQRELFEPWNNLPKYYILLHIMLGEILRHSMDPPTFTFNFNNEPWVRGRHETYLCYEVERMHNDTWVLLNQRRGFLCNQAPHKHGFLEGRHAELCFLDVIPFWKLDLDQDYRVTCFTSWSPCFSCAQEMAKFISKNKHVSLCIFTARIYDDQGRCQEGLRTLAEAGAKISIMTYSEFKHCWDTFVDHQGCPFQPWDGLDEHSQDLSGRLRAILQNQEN
# [21] = molecular target: T5, Small ubiquitin-related modifier 1 (Homo sapiens, UniProt P63165); experiment: inhibitors of SUMO1 peptide binding, dose response, biochemical, fluorescence polarization, uHTS hits (AID 624382); format: functional; settings: read-out: IC50_Mean
# T5 sequence (P63165 whole entry): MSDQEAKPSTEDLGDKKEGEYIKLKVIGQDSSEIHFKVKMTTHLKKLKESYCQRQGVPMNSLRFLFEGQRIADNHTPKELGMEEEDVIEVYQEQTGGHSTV
# [22] = molecular target: T5, Small ubiquitin-related modifier 1; experiment: inhibitors of SUMO1 partner interactions, dose response, biochemical, FRET (AID 624383); format: functional; settings: read-out: IC50_Mean
# Sequence of Paired box protein Pax-8 (Q06710 whole entry): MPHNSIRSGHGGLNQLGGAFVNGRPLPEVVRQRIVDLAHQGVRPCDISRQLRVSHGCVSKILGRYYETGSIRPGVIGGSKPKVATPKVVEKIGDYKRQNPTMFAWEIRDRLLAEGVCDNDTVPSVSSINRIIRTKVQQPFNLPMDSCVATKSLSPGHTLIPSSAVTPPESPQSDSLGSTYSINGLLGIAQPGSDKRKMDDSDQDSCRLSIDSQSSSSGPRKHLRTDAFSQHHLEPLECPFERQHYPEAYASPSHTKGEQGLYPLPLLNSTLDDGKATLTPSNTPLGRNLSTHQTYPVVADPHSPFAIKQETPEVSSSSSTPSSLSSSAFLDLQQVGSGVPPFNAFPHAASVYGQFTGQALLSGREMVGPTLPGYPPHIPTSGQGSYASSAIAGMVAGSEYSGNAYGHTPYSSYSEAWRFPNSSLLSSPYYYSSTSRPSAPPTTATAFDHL
compound,measurement,setting,value
C[C@@H]1CCCCO[C@H](CN(C)S(=O)(=O)c2ccccc2)[C@H](C)CN([C@@H](C)CO)C(=O)c2cc(NS(=O)(=O)c3ccc(Cl)cc3)ccc2O1,AC50,[1],6.18 µM (active)
same,AC50,[2],46.7 µM (active)
same,AC50,[3],> 70 µM (inactive)
CCOC(=O)c1ccc(NC(=O)Nc2ccc3c(c2)OCCO3)cc1,AC50,[4],59.3 µM (active)
Clc1cccc(-c2nc3ccc(Br)cn3c2Cc2ccccc2)c1,IC50,[5],> 100 µM (inactive)
same,IC50,[6],> 67.5 µM (inactive)
same,IC50,[7],> 67.5 µM (inactive)
Cc1csc2c(=O)sc(NC(=O)c3cccs3)nc12,IC50,[8],8.33 µM (active)
same,IC50,[9],36.9 µM (inactive)
C[C@H]1CN([C@@H](C)CO)C(=O)c2cc(NC(=O)Nc3ccc(C(F)(F)F)cc3)ccc2O[C@H]1CN(C)S(=O)(=O)c1cccs1,AC50,[10],18 µM (active)
same,AC50,[11],> 52 µM (inactive)
same,AC50,[12],32.4 µM (active)
same,AC50,[13],23.1 µM (active)
same,AC50,[14],29.1 µM (active)
C/C(=N\N=C(/N)SC1CC(=O)N(c2ccccc2)C1=O)c1cccs1 (centres undefined),IC50,[15],> 69.5 µM (inactive)
O=C(COc1ccc(F)cc1)Nc1ccc2c(c1)OCCO2,IC50,[6],> 67.6 µM (inactive)
same,IC50,[7],> 67.6 µM (inactive)
Cc1cc(C(=O)CN2C(=O)NC(C)(CC(C)C)C2=O)c(C)n1-c1ccc2c(c1)OCO2 (centres undefined),IC50,[16],12.8 µM (active)
same,EC50,[17],> 53 µM (inactive)
same,IC50,[18],2.36 µM (active)
O=C(COC(=O)c1ccc(F)c(S(=O)(=O)N2CCOCC2)c1)Nc1ccc2[nH]c(=O)[nH]c2c1,IC50,[19],16.1 µM (active)
same,IC50,[20],25.9 µM (active)
same,IC50,[21],> 66.6 µM (inactive)
same,IC50,[22],20.5 µM (inactive)
